Active and inactive are the calls of the source.
Legend:
[1] = biological target: Tyrosyl-DNA phosphodiesterase 2 (Homo sapiens, UniProt O95551); assay: potency against TDP2 phosphodiesterase activity – biochemical, epi absorbance, IC50, dose response (AID 743297)
Aminopeptidase N = biological target: T1, Aminopeptidase N (Plasmodium falciparum FcB1/Columbia, UniProt O96935); assay: malaria alanyl aminopeptidase activity blockers – biochemical, fluorogenic H-Leu-NHMec substrate, 1536-well (AID 1445); design: species or system Plasmodium falciparum 3D7, 3D7
T1 sequence (O96935 whole entry): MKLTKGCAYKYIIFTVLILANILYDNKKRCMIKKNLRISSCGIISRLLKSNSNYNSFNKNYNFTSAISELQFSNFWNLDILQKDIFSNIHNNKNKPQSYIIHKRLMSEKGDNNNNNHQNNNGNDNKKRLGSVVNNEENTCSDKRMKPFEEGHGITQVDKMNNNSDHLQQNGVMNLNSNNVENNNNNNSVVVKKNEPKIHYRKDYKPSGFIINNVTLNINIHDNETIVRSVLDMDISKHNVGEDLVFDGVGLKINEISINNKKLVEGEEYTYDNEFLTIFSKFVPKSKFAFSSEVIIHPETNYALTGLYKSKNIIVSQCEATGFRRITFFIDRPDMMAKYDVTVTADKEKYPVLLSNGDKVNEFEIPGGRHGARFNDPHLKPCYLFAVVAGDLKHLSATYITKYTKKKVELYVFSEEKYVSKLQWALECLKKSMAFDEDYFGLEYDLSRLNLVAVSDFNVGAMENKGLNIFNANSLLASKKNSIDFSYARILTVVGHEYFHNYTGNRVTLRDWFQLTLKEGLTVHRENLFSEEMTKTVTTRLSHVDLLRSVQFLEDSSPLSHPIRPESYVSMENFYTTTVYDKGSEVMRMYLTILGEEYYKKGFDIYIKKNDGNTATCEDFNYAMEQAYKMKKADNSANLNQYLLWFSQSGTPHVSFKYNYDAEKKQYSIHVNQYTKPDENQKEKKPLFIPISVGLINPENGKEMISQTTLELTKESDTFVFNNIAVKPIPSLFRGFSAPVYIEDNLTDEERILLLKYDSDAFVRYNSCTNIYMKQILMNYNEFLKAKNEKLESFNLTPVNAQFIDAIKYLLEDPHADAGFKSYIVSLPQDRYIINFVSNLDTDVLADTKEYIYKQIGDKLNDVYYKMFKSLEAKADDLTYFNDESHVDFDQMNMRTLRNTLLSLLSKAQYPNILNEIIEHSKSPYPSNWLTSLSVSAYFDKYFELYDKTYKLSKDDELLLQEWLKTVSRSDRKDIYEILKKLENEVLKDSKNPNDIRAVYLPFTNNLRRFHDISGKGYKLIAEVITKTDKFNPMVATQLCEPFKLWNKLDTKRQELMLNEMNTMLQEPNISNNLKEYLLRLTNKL

[2] = tested on: Streptococcus sp. 'group A'; assay: Streptococcus pyogenes SK(-)GAS viability under kanamycin – luminescence, BacTiterGlo, confirmation, counter-screen for streptokinase expression inhibitor project, dose response (AID 1900); assay type: functional, organism-based
[3] = biological target: T2, Long-chain-fatty-acid--AMP ligase FadD28 (Mycobacterium tuberculosis, UniProt P9WQ59); assay: Fluorescence polarization aasay to screen for inhibitors that compete for the binding of FadD28 to a bisubstrate Measured in Biochemical System Using Plate Reader - 2147-01_Inhibitor_Dose_CherryPick_Activity.; assay type: functional, Mycobacterium tuberculosis H37Rv
T2 sequence (P9WQ59 whole entry): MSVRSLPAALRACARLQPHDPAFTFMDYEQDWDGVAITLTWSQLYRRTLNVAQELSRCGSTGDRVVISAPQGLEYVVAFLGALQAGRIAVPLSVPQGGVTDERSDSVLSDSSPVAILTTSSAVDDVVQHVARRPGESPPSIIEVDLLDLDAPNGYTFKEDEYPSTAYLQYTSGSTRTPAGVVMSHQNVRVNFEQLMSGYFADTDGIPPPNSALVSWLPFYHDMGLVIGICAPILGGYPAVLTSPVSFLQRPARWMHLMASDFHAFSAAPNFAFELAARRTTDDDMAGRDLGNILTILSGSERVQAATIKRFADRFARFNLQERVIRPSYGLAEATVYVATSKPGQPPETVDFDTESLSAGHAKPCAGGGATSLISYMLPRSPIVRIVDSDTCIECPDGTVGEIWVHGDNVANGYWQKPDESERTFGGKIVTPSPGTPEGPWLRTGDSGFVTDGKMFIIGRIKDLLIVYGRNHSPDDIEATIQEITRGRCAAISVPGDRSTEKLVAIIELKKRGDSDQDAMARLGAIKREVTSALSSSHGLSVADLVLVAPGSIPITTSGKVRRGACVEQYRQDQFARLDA

[4] = biological target: Serine/threonine-protein kinase PLK4 (Homo sapiens, UniProt O00444); assay type: functional;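 note: PLK4 measured as one member of a kinome-wide kinase profiling panel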
[5] = biological target: Serine/threonine-protein kinase D2 (Homo sapiens, UniProt Q9BZL6); assay type: functional;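 note: measured against PRKD2 as one member of a kinome-wide kinase profiling panel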
Chain of Serine/threonine-protein kinase D2 (Q9BZL6 whole entry): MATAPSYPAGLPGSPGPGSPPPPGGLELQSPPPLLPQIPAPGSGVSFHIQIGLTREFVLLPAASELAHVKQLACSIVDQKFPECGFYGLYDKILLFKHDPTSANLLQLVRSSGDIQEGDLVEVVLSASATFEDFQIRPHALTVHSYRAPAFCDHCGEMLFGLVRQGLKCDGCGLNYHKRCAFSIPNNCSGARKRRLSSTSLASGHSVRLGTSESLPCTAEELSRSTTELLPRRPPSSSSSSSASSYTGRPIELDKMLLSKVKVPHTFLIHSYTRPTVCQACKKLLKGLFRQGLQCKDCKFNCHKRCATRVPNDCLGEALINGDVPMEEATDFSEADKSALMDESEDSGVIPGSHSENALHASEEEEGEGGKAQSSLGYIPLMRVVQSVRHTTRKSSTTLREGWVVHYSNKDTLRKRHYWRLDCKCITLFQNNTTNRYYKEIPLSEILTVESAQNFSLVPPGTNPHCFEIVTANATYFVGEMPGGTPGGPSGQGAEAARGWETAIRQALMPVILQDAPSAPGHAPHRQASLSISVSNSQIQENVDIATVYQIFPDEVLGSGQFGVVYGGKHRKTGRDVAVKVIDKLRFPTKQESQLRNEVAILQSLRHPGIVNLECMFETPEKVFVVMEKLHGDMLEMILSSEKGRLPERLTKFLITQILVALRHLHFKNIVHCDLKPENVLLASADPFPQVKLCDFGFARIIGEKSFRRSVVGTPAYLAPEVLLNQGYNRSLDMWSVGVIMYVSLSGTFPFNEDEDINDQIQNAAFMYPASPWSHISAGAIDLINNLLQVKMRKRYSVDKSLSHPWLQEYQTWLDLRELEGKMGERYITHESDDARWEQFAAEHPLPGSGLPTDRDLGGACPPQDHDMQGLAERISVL

[6] = biological target: Tyrosine-protein kinase SYK (Homo sapiens, UniProt P43405); assay type: functional
SRSF protein kinase 1 = SRSF protein kinase 1 (Homo sapiens, UniProt Q96SB4); assay type: functional;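 note: measured as one member of a kinome-wide kinase profiling panel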
[7] = biological target: Calcium/calmodulin-dependent protein kinase type II subunit delta (Homo sapiens, UniProt Q13557); assay type: functional
Chain of Calcium/calmodulin-dependent protein kinase type II subunit delta (Q13557 whole entry): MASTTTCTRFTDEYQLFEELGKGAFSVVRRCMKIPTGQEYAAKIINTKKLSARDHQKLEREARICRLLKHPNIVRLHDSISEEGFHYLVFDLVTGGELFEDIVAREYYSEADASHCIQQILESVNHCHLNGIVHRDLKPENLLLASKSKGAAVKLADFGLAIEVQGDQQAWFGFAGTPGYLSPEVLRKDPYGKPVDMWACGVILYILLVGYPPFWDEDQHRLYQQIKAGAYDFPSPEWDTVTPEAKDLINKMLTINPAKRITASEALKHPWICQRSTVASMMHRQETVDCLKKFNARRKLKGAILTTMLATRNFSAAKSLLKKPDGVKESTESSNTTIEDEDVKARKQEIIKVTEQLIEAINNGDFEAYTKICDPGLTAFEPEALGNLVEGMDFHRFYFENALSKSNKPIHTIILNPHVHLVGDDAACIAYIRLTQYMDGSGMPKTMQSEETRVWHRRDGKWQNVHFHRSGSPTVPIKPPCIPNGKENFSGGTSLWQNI

[8] = biological target: Tyrosine-protein kinase Lyn (Homo sapiens, UniProt P07948); assay type: functional;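 note: lyn as one member of a kinase panel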
[9] = biological target: MAP/microtubule affinity-regulating kinase 3 (Homo sapiens, UniProt P27448); assay type: functional;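 note: MARK3 affinity measured as one member of a kinome panel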
Chain of MAP/microtubule affinity-regulating kinase 3 (P27448 whole entry): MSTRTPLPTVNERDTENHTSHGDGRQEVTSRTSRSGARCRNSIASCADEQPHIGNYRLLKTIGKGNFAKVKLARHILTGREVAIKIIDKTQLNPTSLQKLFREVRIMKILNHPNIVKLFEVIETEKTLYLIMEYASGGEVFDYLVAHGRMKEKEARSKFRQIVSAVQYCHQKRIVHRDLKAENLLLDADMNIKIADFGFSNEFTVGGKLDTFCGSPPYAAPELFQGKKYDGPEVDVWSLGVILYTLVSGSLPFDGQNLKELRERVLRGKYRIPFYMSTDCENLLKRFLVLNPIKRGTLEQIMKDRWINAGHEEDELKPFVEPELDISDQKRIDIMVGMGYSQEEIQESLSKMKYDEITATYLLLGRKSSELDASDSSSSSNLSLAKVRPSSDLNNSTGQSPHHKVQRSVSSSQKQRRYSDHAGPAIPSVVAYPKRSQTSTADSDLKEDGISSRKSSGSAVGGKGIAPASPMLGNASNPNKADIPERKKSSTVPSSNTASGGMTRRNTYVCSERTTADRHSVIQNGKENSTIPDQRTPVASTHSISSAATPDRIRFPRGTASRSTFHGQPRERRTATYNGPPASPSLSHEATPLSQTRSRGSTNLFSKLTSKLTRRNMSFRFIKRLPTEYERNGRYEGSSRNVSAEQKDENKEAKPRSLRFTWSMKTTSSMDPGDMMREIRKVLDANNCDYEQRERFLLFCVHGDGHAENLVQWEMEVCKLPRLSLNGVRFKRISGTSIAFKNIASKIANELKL

[10] = biological target: Mitogen-activated protein kinase 13 (Homo sapiens, UniProt O15264); assay type: functional
Chain of Mitogen-activated protein kinase 13 (O15264 whole entry): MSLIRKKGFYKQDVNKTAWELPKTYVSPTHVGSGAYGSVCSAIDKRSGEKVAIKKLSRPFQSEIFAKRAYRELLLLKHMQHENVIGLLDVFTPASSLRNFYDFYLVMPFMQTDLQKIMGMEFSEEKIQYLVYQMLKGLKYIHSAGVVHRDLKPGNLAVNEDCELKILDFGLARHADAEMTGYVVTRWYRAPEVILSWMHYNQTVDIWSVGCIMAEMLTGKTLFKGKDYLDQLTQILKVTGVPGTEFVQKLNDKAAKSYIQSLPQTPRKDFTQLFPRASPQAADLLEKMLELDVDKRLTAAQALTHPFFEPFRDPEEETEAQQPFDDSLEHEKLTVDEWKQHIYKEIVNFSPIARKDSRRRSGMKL

[11] = biological target: Non-receptor tyrosine-protein kinase TYK2 (Homo sapiens, UniProt P29597); assay type: functional
[12] = biological target: Proto-oncogene tyrosine-protein kinase Src (Homo sapiens, UniProt P12931); assay type: functional;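 note: SRC entry within a kinome-wide kinase profiling panel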
[13] = biological target: Casein kinase I isoform delta (Homo sapiens, UniProt P48730); assay type: functional;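 note: measured as one member (CSNK1D) of a kinome panel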
[14] = biological target: MAP kinase-interacting serine/threonine-protein kinase 2 (Homo sapiens, UniProt Q9HBH9); assay type: functional
Chain of MAP kinase-interacting serine/threonine-protein kinase 2 (Q9HBH9 whole entry): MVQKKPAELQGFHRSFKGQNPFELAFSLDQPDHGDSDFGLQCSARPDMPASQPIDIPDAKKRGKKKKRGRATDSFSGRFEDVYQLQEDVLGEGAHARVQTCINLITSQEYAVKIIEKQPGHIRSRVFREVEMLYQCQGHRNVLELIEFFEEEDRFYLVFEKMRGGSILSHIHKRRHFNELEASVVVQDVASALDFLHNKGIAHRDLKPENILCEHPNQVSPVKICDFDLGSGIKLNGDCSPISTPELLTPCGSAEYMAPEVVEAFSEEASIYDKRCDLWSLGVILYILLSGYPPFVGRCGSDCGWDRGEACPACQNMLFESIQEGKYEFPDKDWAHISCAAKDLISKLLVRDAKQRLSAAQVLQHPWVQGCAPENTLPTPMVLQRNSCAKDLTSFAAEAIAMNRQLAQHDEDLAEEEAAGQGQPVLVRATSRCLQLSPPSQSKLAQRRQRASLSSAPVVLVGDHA

[15] = biological target: Serine/threonine-protein kinase Nek4 (Homo sapiens, UniProt P51957); assay type: functional
[16] = biological target: RAC-alpha serine/threonine-protein kinase (Homo sapiens, UniProt P31749); assay type: functional;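 note: AKT1 affinity measured as one member of a kinome-wide kinase profiling panel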
[17] = biological target: Mitogen-activated protein kinase kinase kinase kinase 5 (Homo sapiens, UniProt Q9Y4K4); assay type: functional;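 note: measured as one member of a kinome-spanning kinase panel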
[18] = biological target: Serine/threonine-protein kinase MRCK alpha (Homo sapiens, UniProt Q5VT25); assay type: functional
Chain of Serine/threonine-protein kinase MRCK alpha (Q5VT25 whole entry): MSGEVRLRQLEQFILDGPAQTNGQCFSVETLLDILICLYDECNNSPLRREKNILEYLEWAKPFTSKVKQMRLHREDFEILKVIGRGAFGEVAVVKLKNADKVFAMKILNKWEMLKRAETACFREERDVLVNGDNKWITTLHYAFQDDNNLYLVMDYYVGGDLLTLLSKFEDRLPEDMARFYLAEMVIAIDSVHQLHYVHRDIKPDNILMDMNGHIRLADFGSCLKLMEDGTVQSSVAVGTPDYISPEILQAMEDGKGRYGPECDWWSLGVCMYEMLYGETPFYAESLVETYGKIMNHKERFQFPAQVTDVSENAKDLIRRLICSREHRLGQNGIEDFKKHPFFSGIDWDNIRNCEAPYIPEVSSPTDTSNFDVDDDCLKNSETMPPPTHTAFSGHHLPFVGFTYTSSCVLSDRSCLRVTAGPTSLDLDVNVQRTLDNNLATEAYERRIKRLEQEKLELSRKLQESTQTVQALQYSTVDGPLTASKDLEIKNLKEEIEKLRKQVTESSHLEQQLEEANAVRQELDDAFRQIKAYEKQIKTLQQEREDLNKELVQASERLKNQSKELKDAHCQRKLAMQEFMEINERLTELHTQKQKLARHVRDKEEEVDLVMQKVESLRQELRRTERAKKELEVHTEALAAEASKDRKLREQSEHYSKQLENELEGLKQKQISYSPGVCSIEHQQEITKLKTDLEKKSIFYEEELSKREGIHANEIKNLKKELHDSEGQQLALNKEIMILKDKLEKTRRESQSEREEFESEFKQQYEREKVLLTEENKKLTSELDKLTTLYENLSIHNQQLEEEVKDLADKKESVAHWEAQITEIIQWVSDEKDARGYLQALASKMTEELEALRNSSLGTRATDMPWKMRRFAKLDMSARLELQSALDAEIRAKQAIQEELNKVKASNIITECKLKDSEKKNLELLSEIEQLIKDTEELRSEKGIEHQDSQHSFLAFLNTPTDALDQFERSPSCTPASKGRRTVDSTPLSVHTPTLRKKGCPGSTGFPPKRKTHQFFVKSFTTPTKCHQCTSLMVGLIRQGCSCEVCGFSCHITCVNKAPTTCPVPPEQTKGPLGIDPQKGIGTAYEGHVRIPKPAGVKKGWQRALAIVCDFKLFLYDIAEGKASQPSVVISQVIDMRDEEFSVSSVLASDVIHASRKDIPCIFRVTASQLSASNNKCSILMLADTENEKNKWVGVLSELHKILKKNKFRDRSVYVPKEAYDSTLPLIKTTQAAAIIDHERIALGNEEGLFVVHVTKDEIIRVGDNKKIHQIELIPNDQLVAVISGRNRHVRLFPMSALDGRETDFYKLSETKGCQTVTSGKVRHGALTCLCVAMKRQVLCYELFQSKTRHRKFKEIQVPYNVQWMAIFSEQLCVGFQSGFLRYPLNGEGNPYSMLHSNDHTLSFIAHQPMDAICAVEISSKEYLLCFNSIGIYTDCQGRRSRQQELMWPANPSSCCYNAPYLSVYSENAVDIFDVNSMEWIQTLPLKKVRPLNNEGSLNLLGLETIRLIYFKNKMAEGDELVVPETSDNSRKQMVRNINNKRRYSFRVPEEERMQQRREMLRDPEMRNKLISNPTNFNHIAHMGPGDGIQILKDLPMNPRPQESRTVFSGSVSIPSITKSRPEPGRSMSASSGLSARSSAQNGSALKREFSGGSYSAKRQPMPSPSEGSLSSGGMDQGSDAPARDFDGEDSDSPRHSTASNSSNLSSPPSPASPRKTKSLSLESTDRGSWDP

Chain of Tyrosyl-DNA phosphodiesterase 2 (O95551 whole entry): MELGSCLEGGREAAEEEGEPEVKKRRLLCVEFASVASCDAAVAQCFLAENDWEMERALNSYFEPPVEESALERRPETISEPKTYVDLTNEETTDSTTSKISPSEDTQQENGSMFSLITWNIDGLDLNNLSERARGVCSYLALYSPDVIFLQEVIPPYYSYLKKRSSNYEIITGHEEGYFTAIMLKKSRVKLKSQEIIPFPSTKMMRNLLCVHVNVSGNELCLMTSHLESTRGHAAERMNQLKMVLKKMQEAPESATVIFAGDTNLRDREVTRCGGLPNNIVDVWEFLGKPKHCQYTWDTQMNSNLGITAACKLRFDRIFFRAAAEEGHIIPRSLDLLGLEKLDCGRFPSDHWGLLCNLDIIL

`Cc1ccc(NC2=C(NCCO)C(=O)c3ccccc3C2=O)cc1` was tested, and the IC50 [1] was 65100 nM (inactive).

`CC(/C=C1\SC(=S)N(NS(=O)(=O)c2ccc(C)cc2)C1=O)=C\c1ccccc1` was tested, and the IC50 (Aminopeptidase N) was 64000 nM (active), the EC50 [2] was 1410 nM (active) and the AC50 [3] was > 100000 nM (inactive).

In the case of `CN1CCC(c2c(O)cc(O)c3c(=O)cc(-c4ccccc4Cl)oc23)C(O)C1` (configuration not stated), the Ki [4] is reported as 3160 nM (active), the Ki [5] is reported as 1260 nM (active) and the Ki [6] is reported as 794 nM (active). The Ki (SRSF protein kinase 1) was 501 nM (active), the Ki [7] was 2000 nM (active) and the pKi [7] was 5.7. For the same molecule, the Ki [8] was > 1580 nM (inactive), the Ki [9] was > 6310 nM (inactive) and the Ki [10] was 501 nM (active). For the same molecule, the Ki [11] was > 2000 nM (inactive), the Ki [12] was > 2000 nM (inactive) and the Ki [13] was > 7940 nM (inactive). The Ki [14] was 5010 nM (active), the Ki [15] was > 6310 nM (inactive) and the Ki [16] was > 7940 nM (inactive). The Ki [17] was 1000 nM (active), the Ki [18] was 631 nM (active) and the pKi [18] was 6.2.
